# Data from patent US7858738B2, “Synthetic human peptides and pharmaceutical compositions comprising them for the treatment of systemic lupus erythematosus” (Yeda Research and Development Co., Ltd., priority 2001, dated 2010).
# Tests used:
# PBL of SLE patients = test: Proliferative response of PBL of SLE patients to the human 16/6Id mAb; format: cell-based; details: PBL of one SLE patient
# Method: (§1) Induction and treatment of experimental SLE. In order to induce experimental SLE, BALB/c mice were immunized with 1-2 μg of the human mAb 16/6Id and boosted 3 weeks later. For the prevention of experimental SLE, mice were given hCDR1 or hCDR3 (mCDR1 or revmCDR1 as control peptide in Example 12) intravenously (i.v.) or s.c. concomitant with the immunization, and were injected weekly thereafter for 5 weeks. Treatment of an established disease started three and a half months following disease induction with the 16/6Id, when clinical manifestations were already observed. In Example 12, mice received 10 weekly injections (i.v. or s.c.) of mCDR1 or revmCDR1 at a dose of 100 μg/mouse. Prevention and treatment of SLE-like disease in (NZB×NZW)F1 mice with the hCDR1 or mCDR1 peptide. For prevention of SLE, mice at the age of 2 months, before disease manifestations are observed, were injected s.c. with hCDR1 (or mCDR1 in Example 12, 250 μg/mouse) once a week for 10 weeks. To treat an established disease, mice at the age of 5-7 months were injected with hCDR1 (in Example 12, mCDR1 s.c., 250 μg/mouse) once a week for 10 weeks. Proliferative Responses. PBL were isolated from heparinized venous blood by Ficoll-Hypaque (Pharmacia) density-gradient centrifugation. All assays were performed, in triplicate, in flat-bottomed microtiter plates (Falcon, Becton Dickinson, Oxmard, Calif., USA) in which 2×10^5 PBL were cultured in enriched RPMI-1640 as described (Dayan et al., 2000). The PBL were exposed to various concentrations (0.1-40 μg/well) of the human anti-DNA 16/6Id mAb with and without the addition of the various CDR-based peptides at a concentration of at least 10-fold excess over that of the 16/6Id. Phytohemagglutinin (PHA; 2 μg/well) was used as a control for culture conditions at each experiment. The cultures were incubated in 7.5% CO2 at 37° C. for 6 days. Eighteen hours before the cells were harvested, [^3H]-thymidine (0.5μ Ci of 5 Ci/mmol) (Nuclear Research Center, Negev, Israel) was added to all cultures. Results are expressed as the mean thymidine incorporation in counts per minute (CPM) of triplicate culture±SD, or as stimulation index (S.I.; the ratio of mean CPM at the optimal concentration of the human 16/6Id to the mean CPM in the presence of medium alone). A S.I.≧2 was considered a positive response (Dayan et al., 2000). Inhibition (the ratio of mean CPM in the presence of the 16/6Id and various CDR-based peptides to the mean CPM with the 16/6Id without the CDR-based peptide) above 50% was considered positive. Induction of Cytokine Production. Mice that were immunized with the human 16/6Id mAb and either treated or not with the CDR-based peptide, were killed at different periods during or after treatment with the peptide. Splenocytes and lymph node cells (LNC) were harvested and incubated (5×10^6/ml) in the presence of the 16/6Id. Supernatants were collected after 48 and 72 h. Assessment of Cytokines in the Supernatants. Supernatants were collected 48 hours following the initiation of the cultures and stored at −70° C. Measurements of IL-2, IL-10, IFN-γ, and TNF-α were performed by ELISA by using the relevant standards, capture and detecting Abs (Pharmingen) according to the manufacturer's instructions. TGF-β was determined by an ELISA. Briefly, plates were coated with the recombinant human TGF-β1 sRIII/Fc chimera (R & D Systems Inc., Minneapolis, Minn., USA), and the second Ab used was the biotinylated anti-human TGF-β1 antibody (R & D Systems Inc.). The substrate solution used was TMB color Reagent (Helix Diagnostics, West Sacramento, Calif.), and enzyme activity was evaluated by using 570- and 630-nm filters. Detection of SLE-Associated Clinical and Pathological Manifestations. Proteinuria was measured semiquantitatively by using Combistix kit (Ames Division, Bayer Diagnostics, Newbury, U.K.). White blood cells (WBC, for leukopenia) were counted after a 10-fold dilution of heparinized blood in distilled water containing 1% acetic acid (vol/vol). […]
# MMP-9 [1] = test: MMP-9 activity in sera of 16/6Id immunized BALB/c mice; format: in vivo
# Method: (§2) Induction and treatment of experimental SLE. In order to induce experimental SLE, BALB/c mice were immunized with 1-2 μg of the human mAb 16/6Id and boosted 3 weeks later. For the prevention of experimental SLE, mice were given hCDR1 or hCDR3 (mCDR1 or revmCDR1 as control peptide in Example 12) intravenously (i.v.) or s.c. concomitant with the immunization, and were injected weekly thereafter for 5 weeks. Treatment of an established disease started three and a half months following disease induction with the 16/6Id, when clinical manifestations were already observed. In Example 12, mice received 10 weekly injections (i.v. or s.c.) of mCDR1 or revmCDR1 at a dose of 100 μg/mouse. Prevention and treatment of SLE-like disease in (NZB×NZW)F1 mice with the hCDR1 or mCDR1 peptide. For prevention of SLE, mice at the age of 2 months, before disease manifestations are observed, were injected s.c. with hCDR1 (or mCDR1 in Example 12, 250 μg/mouse) once a week for 10 weeks. To treat an established disease, mice at the age of 5-7 months were injected with hCDR1 (in Example 12, mCDR1 s.c., 250 μg/mouse) once a week for 10 weeks. Proliferative Responses. PBL were isolated from heparinized venous blood by Ficoll-Hypaque (Pharmacia) density-gradient centrifugation. […] Results are expressed as the mean thymidine incorporation in counts per minute (CPM) of triplicate culture±SD, or as stimulation index (S.I.; the ratio of mean CPM at the optimal concentration of the human 16/6Id to the mean CPM in the presence of medium alone). […] TGF-β was determined by an ELISA. […] The substrate solution used was TMB color Reagent (Helix Diagnostics, West Sacramento, Calif.), and enzyme activity was evaluated by using 570- and 630-nm filters. […] Proteinuria was measured semiquantitatively by using Combistix kit (Ames Division, Bayer Diagnostics, Newbury, U.K.). White blood cells (WBC, for leukopenia) were counted after a 10-fold dilution of heparinized blood in distilled water containing 1% acetic acid (vol/vol). […]
# MMP-3 [2] = test: MMP-3 levels in sera of 16/6Id immunized BALB/c mice (Western blot); format: in vivo; details: prevention and treatment protocols, 100 μg/mouse; FIG. 21A
# Method: as §2, with “peptide.” for “peptide. For prevention of SLE, mice at the age of 2 months, before disease manifestations are observed, were injected s.c. with hCDR1 (or mCDR1 in Example 12, 250 μg/mouse) once a week for 10 weeks. To treat an established disease, mice at the age of 5-7 months were injected with hCDR1 (in Example 12, mCDR1 s.c., 250 μg/mouse) once a week for 10 weeks. Proliferative Responses. PBL were isolated from heparinized venous blood by Ficoll-Hypaque (Pharmacia) density-gradient centrifugation.”, “U.K.).” for “U.K.). White blood cells (WBC, for leukopenia) were counted after a 10-fold dilution of heparinized blood in distilled water containing 1% acetic acid (vol/vol).”
# MMP-3 [3] = test: MMP-3 immunostaining of kidney sections of 16/6Id immunized BALB/c mice; format: in vivo; details: prevention and treatment experiments; glomeruli and interstitium; FIG. 22
# Method: as §2, with “peptide.” for “peptide. For prevention of SLE, mice at the age of 2 months, before disease manifestations are observed, were injected s.c. with hCDR1 (or mCDR1 in Example 12, 250 μg/mouse) once a week for 10 weeks. To treat an established disease, mice at the age of 5-7 months were injected with hCDR1 (in Example 12, mCDR1 s.c., 250 μg/mouse) once a week for 10 weeks. Proliferative Responses. PBL were isolated from heparinized venous blood by Ficoll-Hypaque (Pharmacia) density-gradient centrifugation.”, “U.K.).” for “U.K.). White blood cells (WBC, for leukopenia) were counted after a 10-fold dilution of heparinized blood in distilled water containing 1% acetic acid (vol/vol).”
# MMP-9 [4] = test: MMP-9 immunostaining of kidney sections of 16/6Id immunized BALB/c mice; format: in vivo; details: prevention and treatment experiments; glomeruli and interstitium; FIG. 22
# Method: as §2, with “peptide.” for “peptide. For prevention of SLE, mice at the age of 2 months, before disease manifestations are observed, were injected s.c. with hCDR1 (or mCDR1 in Example 12, 250 μg/mouse) once a week for 10 weeks. To treat an established disease, mice at the age of 5-7 months were injected with hCDR1 (in Example 12, mCDR1 s.c., 250 μg/mouse) once a week for 10 weeks. Proliferative Responses. PBL were isolated from heparinized venous blood by Ficoll-Hypaque (Pharmacia) density-gradient centrifugation.”, “U.K.).” for “U.K.). White blood cells (WBC, for leukopenia) were counted after a 10-fold dilution of heparinized blood in distilled water containing 1% acetic acid (vol/vol).”
# MMP-9 [5] = test: MMP-9 activity in sera of (NZB×NZW)F1 mice (gel zymography); format: in vivo
# Method: as §1, with “A S.I.≧2 was considered a positive response (Dayan et al., 2000). Inhibition (the ratio of mean CPM in the presence of the 16/6Id and various CDR-based peptides to the mean CPM with the 16/6Id without the CDR-based peptide) above 50% was considered positive. Induction of Cytokine Production. Mice that were immunized with the human 16/6Id mAb and either treated or not with the CDR-based peptide, were killed at different periods during or after treatment with the peptide. Splenocytes and lymph node cells (LNC) were harvested and incubated (5×10^6/ml) in the presence of the 16/6Id. Supernatants were collected after 48 and 72 h. Assessment of Cytokines in the Supernatants. Supernatants were collected 48 hours following the initiation of the cultures and stored at −70° C. Measurements of IL-2, IL-10, IFN-γ, and TNF-α were performed by ELISA by using the relevant standards, capture and detecting Abs (Pharmingen) according to the manufacturer's instructions.” left out, “Briefly, plates were coated with the recombinant human TGF-β1 sRIII/Fc chimera (R & D Systems Inc., Minneapolis, Minn., USA), and the second Ab used was the biotinylated anti-human TGF-β1 antibody (R & D Systems Inc.).” left out, “Detection of SLE-Associated Clinical and Pathological Manifestations.” left out
# MMP-3 [6] = test: MMP-3 levels in sera of (NZB×NZW)F1 mice (Western blot); format: in vivo
# Method: as §2
# [7] = tested on: SLE prone mice (NZB×NZW) F1 or MRL/lpr/lpr; details: Eilat et al., 2000 and 2001; cited from earlier work
# T cell priming = details: administered in PBS; Waisman et al., 1997; cited from earlier work
Sequence,"inhibition of the proliferative responses of PBL to human 16/6Id mAb (PBL of SLE patients; FIG. 7, reversed murine peptides as controls)","activity of sera comparable to pure active MMP-9 (MMP-9 [1]; MMP-9 activity assay system, preliminary, unimmunized 7 ng/ml, 16/6Id immunized 16 ng/ml)","MMP-9 activity in sera (MMP-9 [1]; prevention and treatment protocols, 100 μg/mouse, FIG. 21B)",levels of MMP-3 in sera (MMP-3 [2]),expression levels of MMP-3 in the kidneys (MMP-3 [3]),expression levels of MMP-9 in the kidneys (MMP-9 [4]),"MMP-9 activity in the serum (MMP-9 [5]; prevention protocol: 250 μg/mouse s.c. weekly for 10 weeks from age 2 months, FIG. 20B)","activity of MMP-9 in the sera (MMP-9 [5]; treatment of sick mice, FIG. 20B right)","two lower bands of MMP-3 in the serum (MMP-3 [6]; prevention protocol: 250 μg/mouse s.c. weekly for 10 weeks from age 2 months, FIG. 20A)","levels of MMP-3 in the sera (MMP-3 [6]; treatment of sick mice, FIG. 20A right)",prevention or treatment of SLE induced by human 16/6Id mAb or spontaneous [7],T cell priming to the appropriate mCDR peptide or to the whole anti-DNA 16/6Id mAb (T cell priming),inhibition of the proliferative responses of PBL to the human 16/6Id mAb (PBL of SLE patients; FIG. 6)
"SGQGWYDMAYPEWLFRACYY (Synthetic peptide prepared in reversed order of SEQ ID NO 3.) [revmCDR3, control peptide synthesized in the reversed order of mCDR3, reference compound]",failed to inhibit significantly,–,–,–,–,–,–,–,–,–,–,–,–
TGYYMQWVKQSPEKSLEWIG [mCDR1],–,8.5 ng/mL,could down regulate,could down regulate,down-regulated,down-regulated,reduction,specifically down-regulated,reduction,specifically down-regulated,either prevent or treat an already established SLE,inhibiting T cell priming,–
"YYCARFLWEPYAMDYWGQGS (Murine) [mCDR3, murine peptide based on CDR3 of the VH chain of murine mAb 5G12]",–,–,–,–,–,–,–,–,–,–,either prevent or treat an already established SLE,inhibiting T cell priming,did not inhibit
